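Values below derive from 48-hour exposures of cells grown in 96-well plates, with endpoints linearly interpolated between the two concentrations bracketing the appropriate inhibition level. GI50: concentration for 50% inhibition of growth. TGI is the concentration that stops growth completely.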
What was measured:
Test in all cases: DTP human tumour cell line panel, 48 h; in the data active means GI50 below about 0.43 µM; inactive means the rest
HOP-62 NSCLC = tested on: HOP-62 NSCLC
NCI-H522 lung = tested on: NCI-H522 lung
SK-OV-3 ovarian = tested on: SK-OV-3 ovarian
HCC-2998 colon = tested on: HCC-2998 colon
A549 NSCLC = tested on: A549 NSCLC
UACC-62 melanoma = tested on: UACC-62 melanoma
SW-620 colon = tested on: SW-620 colon
COLO 205 colon = tested on: COLO 205 colon
NCI-H460 lung = tested on: NCI-H460 lung
NCI-H226 lung = tested on: NCI-H226 lung

C#CC[N+](C)(CC#C)CC#C
> 100 µM: TGI (HOP-62 NSCLC) | TGI (NCI-H522 lung) | TGI (SK-OV-3 ovarian) | TGI (HCC-2998 colon) | TGI (A549 NSCLC) | TGI (UACC-62 melanoma) | TGI (SW-620 colon) | TGI (COLO 205 colon) | TGI (NCI-H460 lung)

COc1cc(OC)c2nccc(NCCCN(C)C)c2c1[N+](=O)[O-]
> 100 µM: TGI (HOP-62 NSCLC) | TGI (NCI-H522 lung) | TGI (SK-OV-3 ovarian) | TGI (HCC-2998 colon) | TGI (A549 NSCLC) | TGI (UACC-62 melanoma) | TGI (SW-620 colon) | TGI (COLO 205 colon) | TGI (NCI-H460 lung)

O=S(=O)(O)c1ccc(N=Nc2nc(C(F)(F)F)c(C(F)(F)F)[nH]2)cc1
72.2 µM: TGI (UACC-62 melanoma)
> 100 µM: TGI (HOP-62 NSCLC) | TGI (SK-OV-3 ovarian) | TGI (A549 NSCLC) | TGI (SW-620 colon) | TGI (NCI-H226 lung) | TGI (COLO 205 colon) | TGI (NCI-H460 lung)

S=c1nc(COc2ccc(Cl)cc2Cl)[nH][nH]1
> 100 µM: TGI (HCC-2998 colon) | TGI (A549 NSCLC) | TGI (UACC-62 melanoma) | TGI (SW-620 colon) | TGI (NCI-H226 lung) | TGI (NCI-H460 lung)

O=C(O)C1CC2(C1)CC(C(=O)O)C2 (centres undefined)
> 100 µM: TGI (HOP-62 NSCLC) | TGI (NCI-H522 lung) | TGI (SK-OV-3 ovarian) | TGI (HCC-2998 colon) | TGI (A549 NSCLC) | TGI (UACC-62 melanoma) | TGI (SW-620 colon) | TGI (COLO 205 colon) | TGI (NCI-H460 lung)

CCn1c(SC(C)C(=O)c2c(C)n(C)n(-c3ccccc3)c2=O)nc2ccccc2c1=O (centres undefined)
> 100 µM: TGI (HOP-62 NSCLC) | TGI (NCI-H522 lung) | TGI (SK-OV-3 ovarian) | TGI (A549 NSCLC) | TGI (UACC-62 melanoma) | TGI (NCI-H226 lung) | TGI (COLO 205 colon) | TGI (NCI-H460 lung)

CC(C)(C)c1ccc(OC(=O)Nc2ccc(O)c(C(=O)O)c2)cc1
> 100 µM: TGI (HOP-62 NSCLC) | TGI (NCI-H522 lung) | TGI (SK-OV-3 ovarian) | TGI (A549 NSCLC) | TGI (UACC-62 melanoma) | TGI (SW-620 colon) | TGI (NCI-H226 lung) | TGI (COLO 205 colon) | TGI (NCI-H460 lung)

Cc1nc2c(o1)C(=Nc1ccccc1)c1ccccc1C2=O
11 µM: TGI (UACC-62 melanoma)
15.8 µM: TGI (NCI-H522 lung)
25.5 µM: TGI (NCI-H460 lung)
32.9 µM: TGI (HCC-2998 colon)
38.3 µM: TGI (A549 NSCLC)
28 µM: TGI (SK-OV-3 ovarian)
28.1 µM: TGI (HOP-62 NSCLC)
23.2 µM: TGI (SW-620 colon)
29.7 µM: TGI (COLO 205 colon)

Cc1noc2c1C(=O)CCC2
> 100 µM: TGI (NCI-H522 lung) | TGI (SK-OV-3 ovarian) | TGI (UACC-62 melanoma) | TGI (SW-620 colon) | TGI (NCI-H226 lung) | TGI (COLO 205 colon)

COc1cccc(CSCC(=O)O)c1
> 100 µM: TGI (HOP-62 NSCLC) | TGI (NCI-H522 lung) | TGI (SK-OV-3 ovarian) | TGI (A549 NSCLC) | TGI (UACC-62 melanoma) | TGI (SW-620 colon) | TGI (NCI-H226 lung) | TGI (COLO 205 colon) | TGI (NCI-H460 lung)

NC1=NC(c2ccc(Cl)cc2)N(c2ccc(S(N)(=O)=O)cc2)C(N)=N1 (centres undefined)
> 100 µM: TGI (HOP-62 NSCLC) | TGI (NCI-H522 lung) | TGI (SK-OV-3 ovarian) | TGI (A549 NSCLC) | TGI (UACC-62 melanoma) | TGI (SW-620 colon) | TGI (NCI-H226 lung) | TGI (COLO 205 colon) | TGI (NCI-H460 lung)

NC(=O)c1ccccc1NC(=O)C(=O)Cc1nc2ccccc2[nH]c1=O
> 100 µM: TGI (HOP-62 NSCLC) | TGI (NCI-H522 lung) | TGI (SK-OV-3 ovarian) | TGI (HCC-2998 colon) | TGI (A549 NSCLC) | TGI (UACC-62 melanoma) | TGI (SW-620 colon) | TGI (COLO 205 colon) | TGI (NCI-H460 lung)

CC(=O)OC1=CC2=CC[C@H]3[C@@H]4CCC(=O)[C@@]4(C)CC(=O)[C@]3(S)[C@@]2(C)CC1
69.8 µM: TGI (NCI-H460 lung)
> 100 µM: TGI (HOP-62 NSCLC) | TGI (SK-OV-3 ovarian) | TGI (A549 NSCLC) | TGI (SW-620 colon) | TGI (COLO 205 colon)
65.1 µM: TGI (HCC-2998 colon)
63 µM: TGI (NCI-H522 lung)
93.1 µM: TGI (UACC-62 melanoma)

Clc1ccc(-c2csc(Nc3cccc(-c4csc(-c5ccccc5)n4)c3)n2)cc1
22.8 µM: TGI (HOP-62 NSCLC)
23.5 µM: TGI (NCI-H522 lung)
23.1 µM: TGI (COLO 205 colon)
43.4 µM: TGI (A549 NSCLC)
28.8 µM: TGI (SW-620 colon)
13.6 µM: TGI (UACC-62 melanoma)
inactive: GI50 (HOP-62 NSCLC) 10.7 µM | GI50 (NCI-H522 lung) 10.2 µM | GI50 (SK-OV-3 ovarian) 25.3 µM | GI50 (A549 NSCLC) 15.2 µM | GI50 (UACC-62 melanoma) 6.24 µM | GI50 (SW-620 colon) 12.2 µM | GI50 (COLO 205 colon) 10 µM | GI50 (NCI-H460 lung) 10.5 µM
> 50 µM: TGI (SK-OV-3 ovarian)
27.1 µM: TGI (NCI-H460 lung)

COc1ccccc1C1=C(Nc2ccccc2)C(=O)NC1=O
> 25 µM: TGI (HOP-62 NSCLC) | TGI (NCI-H522 lung) | TGI (SK-OV-3 ovarian) | TGI (HCC-2998 colon) | TGI (A549 NSCLC) | TGI (UACC-62 melanoma) | TGI (SW-620 colon) | TGI (COLO 205 colon) | TGI (NCI-H460 lung)
inactive: GI50 (HOP-62 NSCLC) > 25 µM | GI50 (NCI-H522 lung) > 25 µM | GI50 (SK-OV-3 ovarian) > 25 µM | GI50 (HCC-2998 colon) > 25 µM | GI50 (A549 NSCLC) > 25 µM | GI50 (UACC-62 melanoma) > 25 µM | GI50 (SW-620 colon) > 25 µM | GI50 (COLO 205 colon) > 18.9 µM | GI50 (NCI-H460 lung) > 25 µM

Nc1cc(O)ccc1N=Nc1ccc(-c2nc3ccccc3[nH]2)cc1
35.8 µM: TGI (NCI-H460 lung)
> 100 µM: TGI (HOP-62 NSCLC) | TGI (NCI-H522 lung) | TGI (SK-OV-3 ovarian) | TGI (A549 NSCLC) | TGI (UACC-62 melanoma) | TGI (SW-620 colon) | TGI (NCI-H226 lung) | TGI (COLO 205 colon)
inactive: GI50 (HOP-62 NSCLC) > 100 µM | GI50 (NCI-H522 lung) 34.2 µM | GI50 (SK-OV-3 ovarian) > 100 µM | GI50 (A549 NSCLC) > 100 µM | GI50 (UACC-62 melanoma) 17.1 µM | GI50 (SW-620 colon) 52.9 µM | GI50 (NCI-H226 lung) > 100 µM | GI50 (COLO 205 colon) 34.9 µM | GI50 (NCI-H460 lung) 10.2 µM

COC(=O)/C(=N/Nc1cccc(Cl)c1)C(C(=O)C(=O)Nc1cccc(Cl)c1C)c1nc2ccccc2nc1C (centres undefined)
> 100 µM: TGI (HOP-62 NSCLC) | TGI (NCI-H522 lung) | TGI (SK-OV-3 ovarian) | TGI (HCC-2998 colon) | TGI (A549 NSCLC) | TGI (UACC-62 melanoma) | TGI (SW-620 colon) | TGI (COLO 205 colon) | TGI (NCI-H460 lung)

S=C(Nc1ccc(N=Nc2ccccc2)cc1)SCc1ccccc1
39 µM: TGI (NCI-H226 lung)
39.5 µM: TGI (NCI-H460 lung)
42.1 µM: TGI (COLO 205 colon)
44.5 µM: TGI (SW-620 colon)
35.8 µM: TGI (A549 NSCLC)
98 µM: TGI (SK-OV-3 ovarian)
36.2 µM: TGI (NCI-H522 lung)
31.8 µM: TGI (UACC-62 melanoma)
41.3 µM: TGI (HOP-62 NSCLC)

Source: PubChem BioAssay (NCI)
